Laboratory results from US20210161868A1, “ANTI-INFLAMMATORY THERAPY IN ARRHYTHMOGENIC CARDIOMYOPATHY (ACM)” (Beth Israel Deaconess Medical Center, Inc., priority 2018, published 2021).

Test system: hearts of Dsg2^mut/mut mice
Assay: Cytokine arrays in mouse hearts
Format: in vivo
Description: Three cohorts of mice at 8 weeks of age were anesthetized and implanted with subcutaneous osmotic mini-pumps (Alzet, Model 1004). These included: 1) Dsg2^mut/mut mice with pumps containing 50 μg/μL Bay11-7082 in a vehicle of 65% DMSO, 15% ethanol, and 20% saline; 2) Dsg2^mut/mut mice with pumps containing an equivalent volume of vehicle; and 3) wildtype mice with pumps containing vehicle. Mice in cohort 1 received 5 mg/kg/day of Bay11-7082 by continuous infusion; those in cohorts 2 and 3 received an equivalent volume of vehicle each day for 4 weeks. At 12 weeks of age, mice were re-anesthetized and new Alzet pumps were implanted for an additional 4 weeks of treatment.
Myocardium from mice was lyzed in RIPA buffer and cardiac myocytes from patient hiPSCs were lysed in TRIzol, and protein in lysates was quantified by standard BCA protein assay. Mouse (R&D Systems, Cat. No. ARY028) and Human (R&D Systems, Cat. No. ARY022B) Proteome Profiler XL Cytokine Arrays were blocked at room temperature for 1 hour before being incubated overnight at 4° C. with 200 μg of myocardial protein in blocking buffer supplied by manufacturer. Additional arrays were incubated overnight at 4° C. with 200 μl of hiPSC-cardiac myocyte culture medium according to the manufacturer's protocol for cell supernatants. Following overnight incubation, arrays were washed four times (10 minutes/wash), incubated at room temperature for 1 hour with Antibody Detection Cocktail, washed an additional four times (10 minutes/wash), then incubated with 1:2,000 Streptavidin-HRP in blocking buffer for 30 minutes at room temperature. Arrays were then washed four times and chemiluminescence was performed using the Chemi Reagent Mix included in the assay kits.
Data are presented as mean±SEM. Specific n-values are inset within each figure legend or table. P<0.05 was deemed statistically significant. As appropriate, associations between continuous dependent variables were tested using Student's paired/unpaired t-tests (binary independent variables) or one-way ANOVA (two or more variables). In the in vivo studies involving Dsg2^mut/mut mice, correlations between (i) ejection fraction and the amounts of myocardial fibrosis and apoptosis, (ii) cytokine expression levels and ejection fraction, and (iii) the levels of each individual cytokine against all other cytokines were made using Pearson's r analysis. Changes in cytokine levels in WT vs. Dsg2^mut/mut and/or untreated vs. Bay 11-7082-treated Dsg2^mut/mut mice were analyzed by two-way ANOVA with Tukey's post-hoc testing. The levels of any cytokines showing a significant change were then correlated with ejection fraction in each animal using Pearson's r analysis. In addition, the levels of all cytokines (n=111) were analyzed in a Pearson's correlation matrix table to correlate the expression level of each individual cytokine with all other cytokines.

[1] = Dsg2^mut/mut (Bay11-7082) vs Dsg2^mut/mut
[2] = Dsg2^mut/mut (Bay11-7082) vs WT
[3] = Dsg2^mut/mut mice with pumps containing 50 μg/μL Bay11-7082

## Cc1ccc(S(=O)(=O)/C=C/C#N)cc1 [Bay 11-7082]
[1]
  Adiponectin expression: <1
  Amphiregulin expression: <1
  Angiopoietin-1 expression: <1
  Angiopoietin-2 expression: 1-2
  Angiopoietin-like 3 expression: <1
  BAFF/BLyS/TNFSF13B expression: <1
  C1qR1/CD93 expression: <1
  C-Reactive Protein/CRP expression: <1
  CCL2/JE/MCP-1 expression: <1
  CCL3/CCL4/MIP-1a/B expression: <1
  CCL5/RANTES expression: <1
  CCL6/C10 expression: <1
  CCL17/TARC expression: <1
  CCL19/MIP-3B expression: <1
  CCL20/MIP-3a expression: <1
  CCL21/6Ckine expression: <1
  CCL22/MDC expression: <1
  CD14 expression: 1-2
  CD40/TNFRSF5 expression: <1
  CD160 expression: <1
  CX3CL1/Fractalkine expression: <1
  CXCL9/MIG expression: <1
  CXCL13/BLC/BCA-1 expression: <1
  CXCL16 expression: <1
  Chemerin expression: <1
  Chitinase 3-like 1 expression: <1
  Coagulation Factor III/Tissue Factor expression: <1
  Complement Component C5/C5a expression: <1
  Complement Factor D expression: <1
  Cystatin C expression: <1
  DKK-1 expression: <1
  DPPIV/CD26 expression: <1
  E-Selectin/CD62E expression: <1
  EGF expression: <1
  Endoglin/CD105 expression: <1
  Endostatin expression: <1
  Eotaxin (CCL11) expression: <1
  FGF acidic expression: <1
  FGF-21 expression: <1
  FLt-3 Ligand expression: <1
  Fetuin A/AHSG expression: <1
  G-CSF expression: <1
  GDF-15 expression: <1
  GM-CSF expression: <1
  Gas 6 expression: <1
  HGF expression: <1
  I-TAC (Cxcl11) expression: <1
  IFN-y expression: <1
  IGFBP-1 expression: <1
  IGFBP-2 expression: <1
  IGFBP-3 expression: <1
  IGFBP-5 expression: <1
  IGFBP-6 expression: <1
  IL-1a (IL-1F1) expression: <1
  IL-1ra (IL-1F3) expression: <1
  IL-1β (IL-1F2) expression: <1
  IL-2 expression: <1
  IL-3 expression: <1
  IL-4 expression: <1
  IL-5 expression: <1
  IL-6 expression: <1
  IL-7 expression: <1
  IL-10 expression: <1
  IL-11 expression: <1
  IL-12 p40 expression: <1
  IL-13 expression: <1
  IL-15 expression: <1
  IL-17a expression: <1
  IL-22 expression: <1
  IL-23 expression: <1
  IL-27 p28 expression: <1
  IL-28A/B expression: <1
  IL-33 expression: <1
  IP-10 (CXL10/CRG-2) expression: <1
  KC (CXCL1) expression: <1
  LDL R expression: 1-2
  LIF expression: <1
  LIX expression: <1
  Leptin expression: <1
  Lipocalin-2/NGAL expression: <1
  M-CSF expression: 1-2
  MCP-5 (CCL12) expression: <1
  MIP-2 (CXCL2) expression: <1
  MMP-2 expression: 1-2
  MMP-3 expression: 1-2
  MMP-9 expression: <1
  Myeloperoxidase expression: <1
  Osteopontin (OPN) expression: <1
  Osteoprotegerin/TNFRSF11B expression: <1
  P-Selectin/CD62P expression: <1
  PD-EGF/Thymidine phosphorylase expression: <1
  PDGF-BB expression: <1
  Pentraxin 2/SAP expression: <1
  Pentraxin 3/TSG-14 expression: <1
  Periostin/OSF-2 expression: <1
  Pref-1/DLK-1/FA1 expression: <1
  Proliferin expression: <1
  Proprotein Convertase 9/PCSK9 expression: 1-2
  RAGE expression: <1
  RBP4 expression: <1
  Reg3G expression: <1
  Resistin expression: <1
  Serpin E1/PAI-1 expression: <1
  Serpin F1/PEDF expression: <1
  TIM-1/KIM-1/HAVCR expression: 1-2
  TNF-α expression: <1
  Thrombopoeitin expression: 1-2
  VCAM-1/CD106 expression: 1-2
  VEGF expression: 1-2
  WISP-1/CCN4 expression: <1
  sICAM-1 (CD54) expression: <1
[2]
  Adiponectin expression: <1
  Amphiregulin expression: <1
  Angiopoietin-1 expression: <1
  Angiopoietin-2 expression: <1
  Angiopoietin-like 3 expression: <1
  BAFF/BLyS/TNFSF13B expression: <1
  C1qR1/CD93 expression: <1
  C-Reactive Protein/CRP expression: <1
  CCL2/JE/MCP-1 expression: <1
  CCL3/CCL4/MIP-1a/B expression: <1
  CCL5/RANTES expression: <1
  CCL6/C10 expression: <1
  CCL17/TARC expression: <1
  CCL19/MIP-3B expression: <1
  CCL20/MIP-3a expression: <1
  CCL21/6Ckine expression: <1
  CCL22/MDC expression: <1
  CD14 expression: <1
  CD40/TNFRSF5 expression: <1
  CD160 expression: <1
  CX3CL1/Fractalkine expression: <1
  CXCL9/MIG expression: <1
  CXCL13/BLC/BCA-1 expression: 2-4
  CXCL16 expression: <1
  Chemerin expression: <1
  Chitinase 3-like 1 expression: <1
  Coagulation Factor III/Tissue Factor expression: <1
  Complement Component C5/C5a expression: <1
  Complement Factor D expression: <1
  Cystatin C expression: <1
  DKK-1 expression: <1
  DPPIV/CD26 expression: 1-2
  E-Selectin/CD62E expression: <1
  EGF expression: 1-2
  Endoglin/CD105 expression: <1
  Endostatin expression: <1
  Eotaxin (CCL11) expression: <1
  FGF acidic expression: <1
  FGF-21 expression: <1
  FLt-3 Ligand expression: <1
  Fetuin A/AHSG expression: <1
  G-CSF expression: 1-2
  GDF-15 expression: <1
  GM-CSF expression: <1
  Gas 6 expression: <1
  HGF expression: 4-6
  I-TAC (Cxcl11) expression: <1
  IFN-y expression: 1-2
  IGFBP-1 expression: 1-2
  IGFBP-2 expression: <1
  IGFBP-3 expression: <1
  IGFBP-5 expression: <1
  IGFBP-6 expression: <1
  IL-1a (IL-1F1) expression: <1
  IL-1ra (IL-1F3) expression: 1-2
  IL-1β (IL-1F2) expression: 6-10
  IL-2 expression: <1
  IL-3 expression: <1
  IL-4 expression: <1
  IL-5 expression: <1
  IL-6 expression: <1
  IL-7 expression: <1
  IL-10 expression: <1
  IL-11 expression: <1
  IL-12 p40 expression: 1-2
  IL-13 expression: 1-2
  IL-15 expression: 2-4
  IL-17a expression: <1
  IL-22 expression: <1
  IL-23 expression: <1
  IL-27 p28 expression: <1
  IL-28A/B expression: 1-2
  IL-33 expression: 2-4
  IP-10 (CXL10/CRG-2) expression: <1
  KC (CXCL1) expression: <1
  LDL R expression: 1-2
  LIF expression: <1
  LIX expression: >10
  Leptin expression: 1-2
  Lipocalin-2/NGAL expression: <1
  M-CSF expression: >20
  MCP-5 (CCL12) expression: <1
  MIP-2 (CXCL2) expression: <1
  MMP-2 expression: 4-6
  MMP-3 expression: <1
  MMP-9 expression: <1
  Myeloperoxidase expression: 2-4
  Osteopontin (OPN) expression: 4-6
  Osteoprotegerin/TNFRSF11B expression: <1
  P-Selectin/CD62P expression: >10
  PD-EGF/Thymidine phosphorylase expression: <1
  PDGF-BB expression: 1-2
  Pentraxin 2/SAP expression: 1-2
  Pentraxin 3/TSG-14 expression: <1
  Periostin/OSF-2 expression: <1
  Pref-1/DLK-1/FA1 expression: 6-10
  Proliferin expression: 6-10
  Proprotein Convertase 9/PCSK9 expression: <1
  RAGE expression: <1
  RBP4 expression: 1-2
  Reg3G expression: 6-10
  Resistin expression: 2-4
  Serpin E1/PAI-1 expression: 6-10
  Serpin F1/PEDF expression: <1
  TIM-1/KIM-1/HAVCR expression: <1
  TNF-α expression: 1-2
  Thrombopoeitin expression: <1
  VCAM-1/CD106 expression: 6-10
  VEGF expression: <1
  WISP-1/CCN4 expression: <1
  sICAM-1 (CD54) expression: 1-2
[3]
  LIX (CXCL5) level: markedly reduced
  OPN expression: reduced
In most, but not all, cases
  increased expression of cytokines in Dsg2^mut/mut hearts: blunted or fully normalized
